Test results published in patent publication US20210222181A1, “BACTERIAL VECTORS FOR GENETIC MANIPULATION OF BACTERIA” (BIOVERSYS AG, priority 2018, published 2021).

System: clinical P. aeruginosa strains
Assay: Inhibition of motility of clinical P. aeruginosa strains on LB-agar plates
Format: cell-based, Pseudomonas aeruginosa
Details: three clinical isolates of P. aeruginosa, 10 μg/ml C15 in LB-agar, 16 h at 37° C., compared with absence of C15
Description: Motility of clinical P. aeruginosa strains was inhibited by 12-Methyl-tetradecanoic acid (C15). Three different clinical isolates of P. aeruginosa were plated on LB-agar plates in the absence (FIG. 9, left) and presence (FIG. 9, right) of 10 μg/ml C15 to inhibit cellular motility. The plates were incubated for 16 h at 37° C. […] In contrast, in the absence of C15, the colonies are diffuse and swarm into each other, making the selection of distinct single colonies in the knock-out screening process very difficult.

CCC(C)CCCCCCCCCCC(=O)O (centres unmarked) [C15, 12-Methyl-tetradecanoic acid]
cellular motility / colony morphology on Luria Bertani agar plates: inhibited the cellular motility, leading to small well-defined colonies
cellular motility / colony morphology on Luria Bertani agar plates (listed as 12-Methyl-tetradecanoic acid (C15)): Inhibition of the motility
